Experimental data taken from publication PMC3362575, “Synthesis and Biological Evaluation of Phenanthrenes as Cytotoxic Agents with Pharmacophore Modeling and ChemGPS-NP Prediction as Topo II Inhibitors” (PLoS ONE, 2012).
Values after ≈ are worked out from the molar mass of the structure shown.

Legend:
Format in all cases: cell-based, human
HepG2 = test: MTT cytotoxicity assay, HepG2; settings: for IC50: Homo sapiens, HepG2, Table 1, natural phenanthrenes
Experimental: (§1) The cytotoxic assay of 11 naturally occurring and 19 synthesized phenanthrenes was carried out on a diverse set of human liver (HepG2 and Hep3B), oral (Ca9-22), lung (A549) and breast (MEA-MB-231 and MCF7) cancer cell lines, and a human fetal lung fibroblast (MRC-5) cell line (Tables 1 and 2).
(§2) Compounds were tested against human liver (HepG2 and Hep3B), oral (Ca9-22), lung (A549), breast (MEA-MB-231 and MCF7) cancer cell lines, and the human fetal lung fibroblast (MRC-5) cell line using an established colorimetric MTT assay protocol. The absorbance was measured at 550 nm using a microplate reader. The IC50 is the concentration of agent that reduced cell growth by 50% under the experimental conditions.

Hep3B = test: MTT cytotoxicity assay, Hep3B; settings: for IC50: Homo sapiens, Hep3B, Table 1, natural phenanthrenes
Experimental: as §1, §2

Ca9-22 = test: MTT cytotoxicity assay, Ca9-22; settings: for IC50: Homo sapiens, Ca9-22, Table 1, natural phenanthrenes
Experimental: as §1, §2

A549 = test: MTT cytotoxicity assay, A549; settings: for IC50: Homo sapiens, A549, Table 1, natural phenanthrenes
Experimental: as §1, §2

MCF-7 = test: MTT cytotoxicity assay, MCF-7; settings: for IC50 / MCF-7 activity class (from IC50): Homo sapiens; for IC50: MCF7, Table 1, natural phenanthrenes; for MCF-7 activity class (from IC50): MCF7, Table S3, read-out: Scale Exptl. (MCF-7 activity class)
Experimental: as §1, §2
The pharmacophore modeling with Catalyst HypoGen was performed via Discovery Studio 2.1 (Accelrys, San Diego, CA, USA). Twenty-nine phenanthrene derivatives were collected from the natural plant, C. arisanensis, and from chemical synthesis (Figure 2). Cytotoxicity against MCF-7 cells was determined by the MTT assay and the concentration (µg/mL) of test compound which inhibited 50% of the cancer cells (IC50) was used in the generation of the pharmacophore model. An IC50 value of >20 µg/mL was defined as 20 µg/mL. All experimental IC50 values spanned about 2–3 orders of magnitude from 0.09 to 20 µg/mL. The 2D/3D structures of compounds were generated using ChemBioOffice 2008 (Cambridge Scientic Computing, Cambridge, Massachusetts, USA) and then optimized in a Dreiding force field. The conformational ensemble of each compound was generated using the best conformational analysis method based on a CHARMM force field with a 20 kcal/mol energy threshold above the global minimum. A maximum limit of 255 conformations was used to cover maximum conformational space. The best 3D arrangements of chemical functionalities should explain the activity variations among the 29 compounds. Thirty runs with different parameters were performed for the best pharmacophore hypothesis. Four chemical features, including hydrogen-bond acceptor (HBA), hydrogen-bond donor (HBD), hydrophobic (HYD), and aromatic ring (AR) features, were also tested during the building of pharmacophore hypotheses (Table S1; Text S1). The best hypotheses were selected via a correlation and a cost analysis in Catalyst HypoGen.

MDA-MB-231 = test: MTT cytotoxicity assay, MDA-MB-231; settings: for IC50: Homo sapiens, MDA-MB-231, Table 1, natural phenanthrenes
Experimental: as §1, §2

MRC-5 = test: MTT cytotoxicity assay, MRC-5 fetal lung fibroblast; settings: normal fetal lung fibroblast; for IC50: Homo sapiens, MRC5, Table 1, natural phenanthrenes
Experimental: as §1, §2

[1] = Table 2, synthesized phenanthrenes

| Molecule | IC50 HepG2 (HepG2; [1]) [mg/L] | IC50 Hep3B (Hep3B; [1]) [mg/L] | IC50 Ca9-22 (Ca9-22; [1]) [mg/L] | IC50 A549 (A549; [1]) [mg/L] | IC50 MCF-7 (MCF-7; Table 2, synthesized phenanthrenes, MTT) [mg/L] | Scale Exptl. (MCF-7 activity class) (MCF-7; Table S3) | IC50 MDA-MB-231 (MDA-MB-231; [1]) [mg/L] | IC50 MRC-5 (MRC-5; [1]) [mg/L] | IC50 (HepG2) [mg/L] | IC50 (Hep3B) [mg/L] | IC50 (Ca9-22) [mg/L] | IC50 (A549) [mg/L] | IC50 (MCF-7; MTT) [mg/L] | MCF-7 activity class (from IC50) (MCF-7) [mg/L] | IC50 (MDA-MB-231) [mg/L] | IC50 (MRC-5) [mg/L] |
| --- | --- | --- | --- | --- | --- | --- | --- | --- | --- | --- | --- | --- | --- | --- | --- | --- |
| 5,6,7,5′,6′,7′-hexamethoxy-[8,8′]bi-1,4-phenanthrenequinone [Compound 4c] | 6.87 ± 0.10 | 4.37 ± 0.00 | 1.90 ± 0.01 | 12.65 ± 0.48 | 4.71 ± 0.26 | ++ (moderately active (1.0 μg/mL < IC50 < 20.0 μg/mL, ++)) | 4.09 ± 0.12 | 5.37 ± 0.25 | – | – | – | – | – | – | – | – |
| COC1=CC(=O)c2ccc3cc(OC)c(O)c(OC)c3c2C1=O [CA-2, calanquinone B] | – | – | – | – | – | – | – | – | 14.5 ± 0.43 (≈ 46 µM) | 11.9 ± 0.55 (≈ 38 µM) | 14.64 ± 0.11 (≈ 46.6 µM) | 18.5 ± 0.29 (≈ 58.9 µM) | 11.9 ± 0.08 (≈ 37.9 µM) | 1 to 20 | > 20 | > 20 |
| COc1cc2c(c(OC)c1O)C1=C(CC2)C(=O)C=CC1=O [CA-3] | – | – | – | – | – | – | – | – | 19.76 ± 0.16 (≈ 69 µM) | 6.02 ± 0.12 (≈ 21 µM) | 12.6 ± 0.76 (≈ 43.8 µM) | > 20 | 13.2 (≈ 46.3 µM) | 1 to 20 | 11.9 ± 0.02 (≈ 41.6 µM) | > 20 |
| COc1cc2c(c(OC)c1O)-c1c(O)ccc(O)c1CC2 [CA-4] | – | – | – | – | – | – | – | – | > 20 | 11.1 ± 0.73 (≈ 38.3 µM) | 15.12 ± 0.14 (≈ 52.4 µM) | > 20 | 14.3 ± 0.18 (≈ 49.6 µM) | 1 to 20 | 19.8 ± 0.45 (≈ 68.8 µM) | > 20 |
| COc1c(O)cc2c(c1OC)-c1c(O)ccc(O)c1CC2 [CA-5] | – | – | – | – | – | – | – | – | 17.8 ± 0.4 (≈ 61.7 µM) | 9.87 ± 0.09 (≈ 34.2 µM) | 12.17 ± 0.03 (≈ 42.2 µM) | > 20 | 12.7 ± 0.07 (≈ 44.1 µM) | 1 to 20 | 11.7 ± 0.13 (≈ 40.4 µM) | > 20 |
| COc1cc2c(c(OC)c1OC)-c1c(O)ccc(O)c1CC2 [CA-6] | – | – | – | – | – | – | – | – | > 20 | 11.5 ± 0.76 (≈ 38 µM) | 14.6 ± 0.31 (≈ 48.2 µM) | > 20 | > 20 | > 20 | > 20 | > 20 |
| COc1cc(O)c2c(c1)CCc1ccc(O)c(OC)c1-2 [CA-7] | – | – | – | – | – | – | – | – | > 20 | > 20 | > 20 | > 20 | 14.6 ± 0.34 (≈ 53.7 µM) | 1 to 20 | > 20 | > 20 |
| COc1cc2ccc3cccc(O)c3c2c(OC)c1O [CA-8] | – | – | – | – | – | – | – | – | > 20 | > 20 | > 20 | > 20 | > 20 | > 20 | > 20 | > 20 |
| COc1cc2c(cc1O)CCc1cc(O)cc(OC)c1-2 [CA-9] | – | – | – | – | – | – | – | – | > 20 | 12.9 ± 0.32 (≈ 47.3 µM) | 13 ± 0.42 (≈ 47.7 µM) | 18.1 ± 0.26 (≈ 66.5 µM) | 10.2 ± 0.27 (≈ 37.6 µM) | 1 to 20 | 19.5 ± 0.58 (≈ 71.5 µM) | > 20 |
| COc1cc(O)cc2c1-c1ccc(O)cc1CC2 [CA-10] | – | – | – | – | – | – | – | – | 7.52 (≈ 31 µM) | 7.24 ± 0.18 (≈ 29.9 µM) | 6.11 ± 0.51 (≈ 25.2 µM) | 7.46 ± 0.32 (≈ 30.8 µM) | 6.77 ± 0.12 (≈ 27.9 µM) | 1 to 20 | 7.56 ± 0.03 (≈ 31.2 µM) | 16.4 ± 0.36 (≈ 67.7 µM) |
| COc1cc(O)c(-c2c(O)cc(OC)c3c2CCc2cc(O)ccc2-3)c2c1-c1ccc(O)cc1CC2 [CA-11] | – | – | – | – | – | – | – | – | 7.17 ± 0.35 (≈ 14.9 µM) | 6.28 ± 0.26 (≈ 13 µM) | 5.86 ± 0.06 (≈ 12.1 µM) | 7.4 ± 0.01 (≈ 15.3 µM) | 4.84 ± 0.89 (≈ 10 µM) | 1 to 20 | 7.42 ± 0.03 (≈ 15.4 µM) | 13.2 ± 0.33 (≈ 27.3 µM) |
